Assay results: ChEMBL document CHEMBL1124317, “Rationale for the synthesis and preliminary biological evaluation of highly active new antitumor nitrosoureido sugars” (J Med Chem, 1989)

How the values were obtained:
Mus musculus [1] = assay: The number of L1210 leukemia mice survived after 60 days with compound injected by a dose of 20 mg/kg intraperitoneally; 10/10; type: functional; conditions: route intraperitoneal
[2] = (§1) Lethal dose was evaluated in female mouse; type: toxicity, organism-based; conditions: in vivo
Mus musculus [3] = species on record: Mus musculus; assay: as §1; type: toxicity, organism-based; conditions: in vivo
Mus musculus [4] = assay: The number of L1210 leukemia mice survived after 60 days with compound injected by a dose of 5 mg/kg intraperitoneally; 2/10; type: functional; conditions: route intraperitoneal
[5] = Mortality range of the mice with L1210 leukemia treated with 1.25 mg/kg of dose intraperitoneally with no of mice survived/no of mice treated; 0/8; type: functional; conditions: route intraperitoneal
Mus musculus [6] = assay: Anti tumor activity l when treated to mice with L1210 leukemia with 1.25 mg/kg dose of compound intraperitoneally was expressed as percent of treated to control (T/C %); type: functional; conditions: route intraperitoneal
Mus musculus [7] = assay: The number of B16 Melanocarcinoma mice survived after 60 days with compound injected by a dose of 20 mg/kg intraperitoneally; 9/10; type: functional; conditions: route intraperitoneal
Mus musculus [8] = assay: The number of L1210 leukemia mice survived after 30 days with compound injected by a dose of 1.25 mg/kg intraperitoneally; 0/8; type: functional; conditions: route intraperitoneal
Mus musculus [9] = assay: The number of L1210 leukemia mice survived after 30 days with compound injected by a dose of 2.5 mg/kg intraperitoneally; 0/10; type: functional; conditions: route intraperitoneal
[10] = Ratio of mice died to that of mice treated with 20 mg/kg of compound in olive oil intraperitoneally with Lewis lung; 0/20; type: functional; conditions: route intraperitoneal
Mus musculus [11] = assay: The number of L1210 leukemia mice survived after 60 days with compound injected by a dose of 30 mg/kg intraperitoneally; 9/10; type: functional; conditions: route intraperitoneal
Mus musculus [12] = assay: The number of B16 Melanocarcinoma mice survived after 60 days with compound injected by a dose of 10 mg/kg intraperitoneally; 3/10; type: functional; conditions: route intraperitoneal
Mus musculus [13] = assay: The number of Lewis lung mice survived after 60 days with compound in olive oil injected by a dose of 20 mg/kg intraperitoneally; 18/20; type: functional; conditions: route intraperitoneal
Mus musculus [14] = assay: Median survival time of the non surviving mice; treated with 5 mg/kg of compound to mice with L1210 leukemia; 11-32; type: functional
Mus musculus [15] = assay: The number of B16 melanocarcinoma mice survived after 30 days with compound in olive oil injected by a dose of 20 mg/kg intraperitoneally; 13/20; type: functional; conditions: route intraperitoneal
[16] = Mortality range of the mice with L1210 leukemia treated with 2.5 mg/kg of dose intra peritoneally with no of mice survived/no of mice treated; 0/10; type: functional
Mus musculus [17] = assay: Median survival time of the non surviving mice; treated with 1.25 mg/kg of compound to mice with L1210 leukemia; 16-19; type: functional
[18] = Mortality range of the mice with L1210 leukemia treated with 30 mg/kg of dose intraperitoneally with no of mice survived/no of mice treated; 1/10; type: functional; conditions: route intraperitoneal
[19] = Mortality range of the mice with L1210 leukemia treated with 10 mg/kg of dose intraperitoneally with no of mice survived/no of mice treated; 0/10; type: functional; conditions: route intraperitoneal
Mus musculus [20] = assay: Median survival time of the non surviving mice; treated with 2.5 mg/kg of compound to mice with L1210 leukemia; 11-14; type: functional
Mus musculus [21] = assay: The number of L1210 leukemia mice survived after 60 days with compound in aqueous solution injected by a dose of 20 mg/kg intraperitoneally; 6/10; type: functional; conditions: route intraperitoneal
[22] = Mortality range of the mice with B16 Melanocarcinoma treated with 10 mg/kg of dose intraperitoneally with no of mice survived/no of mice treated; 0/10; type: functional; conditions: route intraperitoneal
Mus musculus [23] = assay: The number of L1210 leukemia mice survived after 60 days with compound injected by a dose of 2.5 mg/kg intraperitoneally; 0/8; type: functional; conditions: route intraperitoneal
Mus musculus [24] = assay: The number of B16 Melanocarcinoma mice survived after 30 days with compound injected by a dose of 30 mg/kg intraperitoneally; 10/10; type: functional; conditions: route intraperitoneal
Mus musculus [25] = assay: Median survival time of the non surviving mice; treated with 0.625 mg/kg of compound to mice with L1210 leukemia; 10-12; type: functional
Mus musculus [26] = assay: The number of L1210 leukemia mice survived after 30 days with compound injected by a dose of 10 mg/kg intraperitoneally; 9/10; type: functional; conditions: route intraperitoneal
Mus musculus [27] = assay: Median survival time of the non surviving mice; treated with 5 mg/kg of compound to mice with B16 Melanocarcinoma; 30-47; type: functional
Mus musculus [28] = assay: The number of L1210 leukemia mice survived after 30 days with compound injected by a dose of 30 mg/kg intraperitoneally; 9/10; type: functional; conditions: route intraperitoneal
[29] = Mortality range of the mice with B16 Melanocarcinoma treated with 30 mg/kg of dose intraperitoneally with no of mice survived/no of mice treated; 0/10; type: functional; conditions: route intraperitoneal

CO[C@@H]1C[C@@H](NC(=O)N(CCCl)N=O)[C@H](O)[C@@H](CO)O1 [ECOMUSTINE]
Survivals (Mus musculus [1]): 10
LD50 [2]: 40.7 mg/kg
LD10 (Mus musculus [3]): 29.4 mg/kg
LD90 (Mus musculus [3]): 56.4 mg/kg
Survivals (Mus musculus [4]): 2
Ratio [5]: 0
T/C (Mus musculus [6]): 188%
Survivals (Mus musculus [7]): 9
Survival after 30 days (Mus musculus [8]): 0
Survivals (Mus musculus [9]): 0
Ratio [10]: 0
Survivals (Mus musculus [11]): 9
Survivals (Mus musculus [12]): 3
Survivals (Mus musculus [13]): 18
Median survival time (Mus musculus [14]): 15.4
Survivals (Mus musculus [15]): 13
Ratio [16]: 0
Median survival time (Mus musculus [17]): 16.9
Ratio [18]: 1
Ratio [19]: 0
Median survival time (Mus musculus [20]): 12.9
Survivals (Mus musculus [21]): 6
Ratio [22]: 0
Survivals (Mus musculus [23]): 0
Survivals (Mus musculus [24]): 10
Median survival time (Mus musculus [25]): 11.25
Survivals (Mus musculus [26]): 9
Median survival time (Mus musculus [27]): 40
Survivals (Mus musculus [28]): 9
Ratio [29]: 0
